What was measured:
[1] = test system: S. faecalis; assay: RIND XXIX reduction solution assay, Δ fluorescence; format: cell-based, Streptococcus faecalis; details: S. faecalis (gram +) about 5×10^7 cells/ml, gramicidin S 0.1 mg/ml, 37° C.
Experimental: (§1) Bacterial suspensions were prepared by growing the cells in BHT broth to stationary phase overnight at 37° C. P. auruginosa was grown with agitation. About 40 ml of each overnight culture was centrifuged, decanted and washed once with 0.05 molar potassium phosphate buffer or 0.05 molar N-2-hydroxy-ethylpiperazine-N'-2-ethanesulfonic acid (HEPES) buffer, pH 7.8, and resuspended in buffer.
(§2) Dispersions containing RIND compounds were prepared by dissolving the RIND compound in N,N-dimethylformamide (DMF) at 16 mg compound per ml of solvent. An aliquot (250 μl) of the resulting solution was added to 500 μl of TRITON X-100 surfactant. This mixture was then added dropwise with stirring to 25 ml of 0.05 molar HEPES buffer. A dispersion of RIND XXIX was prepared similarly except that DMF was acidified with 0.1% sulfuric acid. […]
(§3) The solutions were incubated at 37° C. for 30 minutes, and the change in fluorescence emission (Δ fluorescence) was determined as the difference between the readings taken when the solutions were first mixed and then after 30 minutes incubation. Measurements were made in a commercially available MICROFLUOR Reader (available from Dynatech Laboratories, Alexandria, Virginia, U.S.A.), modified with an excitation filter at 540 nm, an emission filter at 620 nm and a Xenon lamp.

[2] = test system: E. coli; assay: RIND XXIX reduction solution assay, Δ fluorescence; format: cell-based, Escherichia coli; details: E. coli (gram -) about 5×10^7 cells/ml, gramicidin S 0.1 mg/ml, 37° C.
Experimental: as §1
(§4) Dispersions containing RIND compounds were prepared by dissolving the RIND compound in N,N-dimethylformamide (DMF) at 16 mg compound per ml of solvent. An aliquot (250 μl) of the resulting solution was added to 500 μl of TRITON X-100 surfactant. This mixture was then added dropwise with stirring to 25 ml of 0.05 molar HEPES buffer. A dispersion of RIND XXIX was prepared similarly except that DMF was acidified with 0.1% sulfuric acid. Compositions containing water-compatible RIND compounds were prepared as described above except the surfactant was omitted.
(§5) Each test solution contained the following: dispersion of RIND XXIX (25 μl) prepared as described above, glucose (400 μl of 10% aqueous solution), tryptose (400 μl of 10% aqueous solution), trimethyl-1,4-benzoquinone ETA (500 μl of 1.5 mg/ml methanol). Aliquots (200 μl) of the mixture were mixed with solutions of the antibiotics (50 μl). The cell suspensions (50 μl) were then added. The final concentration of gramcidin S and tyrocidin were 0.1 mg/ml and 3.3 mg/ml, respectively. The final cell concentration was about 5×10^7 cells/ml. Cell control solutions contained all reagents except antibiotics. Background controls consisted of both buffer and solution controls. […]
as §3, with “lamp. […]” for “lamp.”

[3] = test system: various bacteria which are found in the human urinary tract; assay: Differentiation with RIND VII, overall result; format: cell-based; details: gramicidin S 10^-4 molar
Experimental: TERGITOL 7 anionic surfactant was used to differentiate viable bacteria according to the prior art method. Various concentrations of TERGITOL 7 surfactant were mixed with a 10% glucose solution (50 μl), 3-(4,5-dimethyl-2-thiazolyl)-2,5-diphenyl-2N-tetrazolium bromide (MTT) (25 μl at 5 mg/ml methanol) or a RIND VII dispersion (1.5 ml) and phenazine methosulfate ETA (25 μl at 3 mg/ml methanol). The volume of each test solution was brought to 3 ml with potassium phosphate buffer. A cell suspension (100 μl at about 10^8 cells/ml) was then added. The solutions were incubated at 37° C. for 15 and 30 minutes in the presence of either E. coli, a gram(-) bacterium, or S. aureus, a gram(+) bacterium. The amount of dye formed was then determined visually, and graded as follows: "O" indicates no dye formation, +/- indicates faint dye formation, 1+ indicates light dye formation, 2+ indicates moderate dye formation, 3+ indicates strong dye formation, and 4+ indicates very strong dye formation.
Gramicidin S, a cyclic polypeptide antibiotic, was similarly used with RIND VII in the differentiation of various bacteria which are found in the human urinary tract. Assays were performed as described above. The final concentration of gramicidin S in each test was 10^-4 molar. […] Dye measurements were made at 635 nm and expressed below as the change in optical density (ΔOD) which was corrected for background.

[4] = test system: P. vulgaris; assay: RIND XXIX reduction solution assay, Δ fluorescence; format: cell-based, Proteus vulgaris; details: P. vulgaris (gram -) about 5×10^7 cells/ml, gramicidin S 0.1 mg/ml, 37° C.
Experimental: as §1, §4, §5
as §3, with “lamp. […]” for “lamp.”

[5] = test system: P. aeruginosa; assay: RIND XXIX reduction solution assay, Δ fluorescence; format: cell-based, Pseudomonas aeruginosa; details: P. aeruginosa (gram -) about 5×10^7 cells/ml, gramicidin S 0.1 mg/ml, 37° C.
Experimental: as §1, §4, §5
as §3, with “lamp. […]” for “lamp.”

[6] = test system: S. aureus; assay: RIND XXIX reduction solution assay, Δ fluorescence; format: cell-based, Staphylococcus aureus; details: S. aureus (gram +) about 5×10^7 cells/ml, gramicidin S 0.1 mg/ml, 37° C.
Experimental: as §1, §2, §3

## gramicidin S
[1]
  Δ Fluorescence (30 Minutes): 0197
[2]
  Δ Fluorescence (30 Minutes): > 4000
[3]
  inhibition of reduction of the RIND compound, in words: selectively inhibits the reduction of the RIND compound by viable gram-positive bacteria but not gram-negative bacteria
[4]
  Δ Fluorescence (30 Minutes): 3491
[5]
  Δ Fluorescence (30 Minutes): > 4000
[6]
  Δ Fluorescence (30 Minutes): 0478

Source: patent US4912036A, “Rapid differentiation of bacteria using cyclic polypeptide antibiotics” (Eastman Kodak Company, priority 1986, dated 1990)
